# “Also recorded” adds a separate entry of the source.
# Tests used:
# [1] = test system: patients with ADCY5-related dyskinesia; experiment: Seven patients treated with caffeine; dyskinesia episodes and self-rated improvement; format: in vivo, human; settings: 150 to 800 mg of caffeine per day, all cases
# Description: Currently, seven patients are treated with caffeine with similar results with uptakes varying from 150 to 800 mg of caffeine per day. […] Four of them were asked to rate the improvement brought by caffeine on their involuntary movements, on a scale of 0 (no improvement) to 100% (major improvement with total disappearance of symptoms). All four reported an improvement of 80 to 100%.
# [2] = test system: patient with ADCY5-related dyskinesia
# Description: The patient is a child with the disorder. Pregnancy, birth and first acquisitions were unremarkable. They developed diurnal and nocturnal episodes of hyperkinetic involuntary movements involving the face and upper limbs, lasting from a few seconds to ten minutes. There was a clear kinesigenic trigger for some of the episodes, others were exercise-induced, and a few were spontaneous. In addition, they were described as clumsy, and had difficulties in various activities of daily living such as fine motor tasks or riding a bike. Frequency of the episodes was around 30 per day, causing significant disruption of activities. […] Interictal neurological examination was normal except for some fleeting choreodystonic movements. Because of the co-occurrence of several types of paroxysmal dyskinesia, the patient was first tested for mutations in the SLC2A1 and ADCY5 genes. Genetic analysis was negative for SLC2A1 but found a mosaic heterozygous mutation in the ADCY5 gene (c.2088+1G>A), previously reported as pathogenic (Carapito et al., A de novo ADCY5 mutation causes early-onset autosomal dominant chorea and dystonia. Mov Disord. 2015; 30(3):423-7).
# Caffeine was the first treatment tried.
# A2AR knockout mice = settings: cited from earlier work
compound,measurement,setting,value
"Cn1c(=O)c2c(ncn2C)n(C)c1=O [caffeine, 1,3,7-trimethylxanthine]",effect on dyskinesia episodes,[1],reduction or a suppression of dyskinesia episodes
same,effect of resuming caffeine intake after four days of decaffeinated coffee,[2]; after unknowing switch to decaffeinated coffee with reversal to baseline,immediately restored the improvement
same,effect on diurnal and nocturnal episodes of dyskinesia,"[2]; espresso in the morning, second espresso in the afternoon, half an espresso at bedtime, baseline around 30 episodes per day",next to complete resolution; also recorded: near-complete resolution
same,remaining short and non-disruptive episodes during the day,"[2]; espresso morning, afternoon and half at bedtime, baseline around 30 episodes per day",at most one or two
same,start of dramatic response after intake,"[2]; one espresso in the morning, approximately 100 mg of caffeine, child, c.2088+1G>A ADCY5 mutation",45 min
same,wake-promoting effect,A2AR knockout mice,abolished

# — patent publication US20220096486A1, “COMPOUNDS FOR USE IN THE TREATMENT OF ADCY5-RELATED DYSKINESIA” (ASSISTANCE PUBLIQUE - HOPITAUX DE PARIS, priority 2019, published 2022)
